{"source": "patent US11339419B2", "about": "“Scavenger protein(s) for improved preservation of analyte detection sensor(s) and method(s) of use thereof” (Siemens Healthcare Diagnostics Inc., priority 2017, dated 2022)", "key": {"creatininase (Toyobo)": {"system": "creatininase (Toyobo)", "assay": "Toyobo Creatininase Enzyme Absorbance with BSA and Proclin 300", "format": "biochemical", "excerpt": "(§1) Absorbance measurements of the creatininase enzyme(s) were taken via spectrophotometer for each aqueous solution (represented as columns 1-5 in Tables 5-8—column 6 is a blank), the absorbance being directly proportional to the enzyme activity being measured-which for Tables 5-8 is creatininase enzyme activity. Accordingly, the higher the absorbance measurement, the higher the enzyme activity of creatininase. […] In addition, the mean values, standard deviations, and coefficients of variation are all presented for the enzyme activity/absorbance of each aqueous solution. All measurements were taken at 37° C."}, "[1]": {"system": "sarcosine oxidase (Toyobo)", "assay": "Toyobo Sarcosine Oxidase Enzyme Absorbance with BSA and Proclin 300", "format": "biochemical", "excerpt": "as §1, with “sarcosine oxidase” for “creatininase”, “1-4—column” for “5-8—column”, “1-4” for “5-8”, “sarcosine oxidase.” for “creatininase.”, “also” for “all”"}, "[2]": {"details": "Day 0, BSA 5 mg/mL only, no Proclin 300, listed as of 0.7% Proclin 300"}, "[3]": {"details": "Day 0, BSA 5 mg/mL only, no Proclin 300, listed as of 1.4% Proclin 300"}, "[4]": {"details": "Day 0, BSA 25 mg/mL only, no Proclin 300, listed as of 0.7% Proclin 300"}, "[5]": {"details": "Day 0, BSA 25 mg/mL only, no Proclin 300, listed as of 1.4% Proclin 300"}, "[6]": {"details": "Day 0, BSA 50 mg/mL only, no Proclin 300, listed as of 0.7% Proclin 300"}, "[7]": {"details": "Day 0, BSA 50 mg/mL only, no Proclin 300, listed as of 1.4% Proclin 300"}, "[8]": {"details": "days 4 and 14, only BSA, no Proclin 300"}, "[9]": {"details": "Day 0, BSA 5 mg/mL only, no Proclin 300, line of 0.7% Proclin 300"}, "[10]": {"details": "Day 0, BSA 5 mg/mL only, no Proclin 300, line of 1.4% Proclin 300"}, "[11]": {"details": "Day 0, BSA 25 mg/mL only, no Proclin 300, line of 0.7% Proclin 300"}, "[12]": {"details": "Day 0, BSA 25 mg/mL only, no Proclin 300, line of 1.4% Proclin 300"}, "[13]": {"details": "Day 0, BSA 50 mg/mL only, no Proclin 300, line of 0.7% Proclin 300"}, "[14]": {"details": "Day 0, BSA 50 mg/mL only, no Proclin 300, line of 1.4% Proclin 300"}}, "note": "Values joined by “and” are separate entries in the source; they are usually repeats but may differ in a detail not shown here. Equal entries are not always repeated."}
{"substance": "bovine serum albumin [BSA]", "values": [{"measurement": "Absorbance, solutions 7-11", "setting": "creatininase (Toyobo); [2]", "result": 0.749}, {"measurement": "MEAN absorbance, solutions 7-11", "setting": "creatininase (Toyobo); [2]", "result": 0.61}, {"measurement": "Absorbance, solutions 7-11", "setting": "creatininase (Toyobo); [3]", "result": "0.569 and 0.573 and 0.57 and 0.582"}, {"measurement": "MEAN absorbance, solutions 7-11", "setting": "creatininase (Toyobo); [3]", "result": 0.47}, {"measurement": "Absorbance, solutions 7-11", "setting": "creatininase (Toyobo); [4]", "result": 0.529}, {"measurement": "MEAN absorbance, solutions 7-11", "setting": "creatininase (Toyobo); [4]", "result": 0.40}, {"measurement": "Absorbance, solutions 7-11", "setting": "creatininase (Toyobo); [5]", "result": "0.508 and 0.507 and 0.518 and 0.514"}, {"measurement": "MEAN absorbance, solutions 7-11", "setting": "creatininase (Toyobo); [5]", "result": 0.41}, {"measurement": "Absorbance, solutions 7-11", "setting": "creatininase (Toyobo); [6]", "result": 0.973}, {"measurement": "MEAN absorbance, solutions 7-11", "setting": "creatininase (Toyobo); [6]", "result": 1.39}, {"measurement": "Absorbance, solutions 7-11", "setting": "creatininase (Toyobo); [7]", "result": "0.488 and 0.464 and 0.506"}, {"measurement": "MEAN absorbance, solutions 7-11", "setting": "creatininase (Toyobo); [7]", "result": 0.39}, {"measurement": "MEAN absorbance, solutions 7-11", "setting": "creatininase (Toyobo); Day 4, BSA 5 mg/mL only, no Proclin 300, listed as of 0.7% Proclin 300", "result": 0.87}, {"measurement": "MEAN absorbance, solutions 7-11", "setting": "creatininase (Toyobo); Day 4, BSA 5 mg/mL only, no Proclin 300, listed as of 1.4% Proclin 300", "result": 0.78}, {"measurement": "MEAN absorbance, solutions 7-11", "setting": "creatininase (Toyobo); Day 4, BSA 25 mg/mL only, no Proclin 300, listed as of 0.7% Proclin 300", "result": 0.68}, {"measurement": "MEAN absorbance, solutions 7-11", "setting": "creatininase (Toyobo); Day 4, BSA 25 mg/mL only, no Proclin 300, listed as of 1.4% Proclin 300", "result": 0.64}, {"measurement": "MEAN absorbance, solutions 7-11", "setting": "creatininase (Toyobo); Day 4, BSA 50 mg/mL only, no Proclin 300, listed as of 0.7% Proclin 300", "result": 0.56}, {"measurement": "MEAN absorbance, solutions 7-11", "setting": "creatininase (Toyobo); Day 4, BSA 50 mg/mL only, no Proclin 300, listed as of 1.4% Proclin 300", "result": 0.54}, {"measurement": "MEAN absorbance, solutions 7-11", "setting": "creatininase (Toyobo); Day 14, BSA 5 mg/mL only, no Proclin 300, listed as of 0.7% Proclin 300", "result": 0.92}, {"measurement": "MEAN absorbance, solutions 7-11", "setting": "creatininase (Toyobo); Day 14, BSA 5 mg/mL only, no Proclin 300, listed as of 1.4% Proclin 300", "result": 0.90}, {"measurement": "MEAN absorbance, solutions 7-11", "setting": "creatininase (Toyobo); Day 14, BSA 25 mg/mL only, no Proclin 300, listed as of 0.7% Proclin 300", "result": 0.71}, {"measurement": "MEAN absorbance, solutions 7-11", "setting": "creatininase (Toyobo); Day 14, BSA 25 mg/mL only, no Proclin 300, listed as of 1.4% Proclin 300", "result": 0.71}, {"measurement": "MEAN absorbance, solutions 7-11", "setting": "creatininase (Toyobo); Day 14, BSA 50 mg/mL only, no Proclin 300, listed as of 0.7% Proclin 300", "result": 0.58}, {"measurement": "MEAN absorbance, solutions 7-11", "setting": "creatininase (Toyobo); Day 14, BSA 50 mg/mL only, no Proclin 300, listed as of 1.4% Proclin 300", "result": 0.57}, {"measurement": "absorbance of the creatininase enzyme compared to samples containing 0 mg/mL of BSA", "setting": "creatininase (Toyobo); day 4, Proclin 300 0.7%, 5, 25 and 50 mg/mL BSA", "result": "increased (albeit a mild increase)"}, {"measurement": "creatininase absorbance, solutions 7-11", "setting": "creatininase (Toyobo); [8]", "result": "increased (or at least maintained)"}, {"measurement": "Absorbance, solutions 7-11", "setting": "[1]; [9]", "result": 1.419}, {"measurement": "MEAN absorbance, solutions 7-11", "setting": "[1]; [9]", "result": 1.39}, {"measurement": "Absorbance, solutions 7-11", "setting": "[1]; [10]", "result": "1.397 and 1.427 and 1.404"}, {"measurement": "MEAN absorbance, solutions 7-11", "setting": "[1]; [10]", "result": 1.35}, {"measurement": "Absorbance, solutions 7-11", "setting": "[1]; [11]", "result": 1.443}, {"measurement": "MEAN absorbance, solutions 7-11", "setting": "[1]; [11]", "result": 1.40}, {"measurement": "Absorbance, solutions 7-11", "setting": "[1]; [12]", "result": "1.403 and 1.426 and 1.429 and 1.44"}, {"measurement": "MEAN absorbance, solutions 7-11", "setting": "[1]; [12]", "result": 1.37}, {"measurement": "Absorbance, solutions 7-11", "setting": "[1]; [13]", "result": 1.418}, {"measurement": "MEAN absorbance, solutions 7-11", "setting": "[1]; [13]", "result": 1.39}, {"measurement": "Absorbance, solutions 7-11", "setting": "[1]; [14]", "result": "1.409 and 1.41 and 1.444"}, {"measurement": "MEAN absorbance, solutions 7-11", "setting": "[1]; [14]", "result": 1.37}, {"measurement": "MEAN absorbance, solutions 7-11", "setting": "[1]; Day 4, BSA 5 mg/mL only, no Proclin 300, line of 0.7% Proclin 300", "result": 0.81}, {"measurement": "MEAN absorbance, solutions 7-11", "setting": "[1]; Day 4, BSA 5 mg/mL only, no Proclin 300, line of 1.4% Proclin 300", "result": 0.86}, {"measurement": "MEAN absorbance, solutions 7-11", "setting": "[1]; Day 4, BSA 25 mg/mL only, no Proclin 300, line of 0.7% Proclin 300", "result": 1.30}, {"measurement": "MEAN absorbance, solutions 7-11", "setting": "[1]; Day 4, BSA 25 mg/mL only, no Proclin 300, line of 1.4% Proclin 300", "result": 1.32}, {"measurement": "MEAN absorbance, solutions 7-11", "setting": "[1]; Day 4, BSA 50 mg/mL only, no Proclin 300, line of 0.7% Proclin 300", "result": 1.31}, {"measurement": "MEAN absorbance, solutions 7-11", "setting": "[1]; Day 4, BSA 50 mg/mL only, no Proclin 300, line of 1.4% Proclin 300", "result": 1.32}, {"measurement": "MEAN absorbance, solutions 7-11", "setting": "[1]; Day 14, BSA 5 mg/mL only, no Proclin 300, line of 0.7% Proclin 300", "result": 0.25}, {"measurement": "MEAN absorbance, solutions 7-11", "setting": "[1]; Day 14, BSA 5 mg/mL only, no Proclin 300, line of 1.4% Proclin 300", "result": 0.29}, {"measurement": "MEAN absorbance, solutions 7-11", "setting": "[1]; Day 14, BSA 25 mg/mL only, no Proclin 300, line of 0.7% Proclin 300", "result": 1.34}, {"measurement": "MEAN absorbance, solutions 7-11", "setting": "[1]; Day 14, BSA 25 mg/mL only, no Proclin 300, line of 1.4% Proclin 300", "result": 1.34}, {"measurement": "MEAN absorbance, solutions 7-11", "setting": "[1]; Day 14, BSA 50 mg/mL only, no Proclin 300, line of 1.4% Proclin 300", "result": 1.39}, {"measurement": "absorbance of the sarcosine oxidase enzyme compared to samples containing 0 mg/mL of BSA", "setting": "[1]; days 4 and 14, 5, 25 and 50 mg/mL BSA, with Proclin 300", "result": "increased absorbance"}, {"measurement": "sarcosine oxidase absorbance, solutions 7-11", "setting": "[1]; [8]", "result": "increased (or at least maintained)"}]}
